Experimental data as given in US6589951B1, “Phthalazine derivatives as phosphodiesterase 4 inhibitors” (Zambon Group S.p.A., priority 1997, dated 2003).
One block for each compound: values may come before it.

Assays:
PDE 4 = PDE 4 enzyme inhibition test (SPA); assay type: biochemical, human; conditions: for activity on PDE 4 (in words): summary statement in description
Procedure: The polymorphonucleate leukocytes (PMNs) were isolated from peripheral blood of healthy volunteers according to what described by Boyum A, Scand. J. Immunol., 1976, 5° suppl., 9). Shortly, the isolation of the PMNs was effected by Ficoll-Paque gradient centrifugation followed by sedimentation on dextrane and the erythrocyte contamination was eliminated by hypotonic lysis.
The human PMNs were resuspended in TRIS/HCl buffer (10 mM pH 7.8) containing MgCl2 (5mM), EGTA (4 mM), mercaptoethanol (5 mM), TRITON-X100 (1%), pepstatin A (1 μM), PMSF (100 μM) and leupeptin (1 μM), and homogenised by Polytron. The homogenate was centrifuged at 25,000×g for 30 minutes at 4° C. and the surnatant was used for the PDE 4 enzyme purification by ion exchange chromatography using the FPLC technique according to what described by Schudt C. et al., Naunyn-Schmidberg's Arch. Pharmacol., 1991, 334, 682. The surnatant was seeded on a UNO Q12 column (Bio-Rad) and the enzyme was eluted by sodium acetate gradient from 50mM to 1M. The fractions containing enzymatic activity were joined, dialysed against water and concentrated. The resulting PDE 4 enzyme was stored at −20° C. in the presence of ethylenglycole (30%) v/v) until use.
The enzyme activity was assessed with an Amersham kit based on the SPA technique (Scintillation Proximity Assay). The enzymatic reaction was effected in a total volume of 100 μl of TRIS/HCl buffer (50 mM, pH7.5), MgCl2 (8.3mM), EGTA (1.7 mM), cAMP (1μM) and [^3H]cAMP (˜100.000 dpm). The compounds of the invention and the reference ones were added at the wanted concentrations. As reference compounds 6,7 dimethoxy-4-(pyridin-4-ylmethyl)-2H-phthalazin-1 on (reference 1) and 6,7-dimethoxy-4-(piperidin-4-ylmethyl)-2H-phthalazin-1-one (reference 2) embraced by the general formula of the patent application EP-0 722 936 (in the name of Eisai) were used. The reaction was started by adding the enzyme (15 μg protein/ml) in 40 minutes at 30° C. and stopped with 50 μl of SPA particles suspension. The radioactivity of the particles was measured in β-emitting counter. The IC50 values were computed over 9 equidistant concentrations in logarithmic scale using a 4-parameters logistic function by a software.

TNFα = TNFα synthesis inhibition in LPS-stimulated human monocytes (ELISA); assay type: cell-based; conditions: Monocyte, LPS 1 ng/ml, 16 hours
Procedure: The monocytes were isolated from peripheral blood of healthy volunteers according the procedure of Schreek L., J. Natl. Cancer Inst., 1964, 32, 507. The monocytes and lymphocytes population was isolated by Ficoll gradient centrifugation, and the cells diluted at a density of 2.5×10^6 cells/ml in RPMI1640 incubation containing 1% inactivated bovine fetal serum, penicillin (100 U/ml) and streptomycin (100 U/ml) were placed in 24-wells plates (1 ml/well) and left to adhere for 1 hour at 37° C. with 5% CO2. At the end of the incubation the lymphocytes not adhering were removed by aspiration and the monocytes adhered to the plate were used in the next step.
The TNFα synthesis from human monocytes was measured according to the method of Barnette M. et al., Biochemical Pharmacology, 1996, 51, 949. The monocles were incubated for 1 hour with 1 ml of RPMI1640 incubation medium (1% inactivated bovine serum, 100 U/ml penicillin and streptomycin) containing different concentrations of the products according to the present invention or the carrier only for the controls. The TNFα synthesis from monocytes was induced by adding 1ng/ml of LPS (lipopolysaccharide of E. Coli) and after 16 hours of incubation at 37° C., 5% CO2, the incubation medium was removed, and the surnatant stored at −80° C. until the measurement. The TNFα levels were determined by ELISA test with an Amersham kit. The results are set forth in Table 2 as IC50 measured with the same calculation of example 67.

PDE 5 = target: T1, PDE 5 (Homo sapiens, UniProt O76074); assay: PDE 5 enzyme inhibition test (SPA); assay type: biochemical; conditions: at 10^-6 M; enzyme from human platelets
T1 construct: Human platelets were prepared from platelet rich plasma (PRP); from tissue; host or cells: human platelets (platelet rich plasma, L. Sacco Hospital, Milan)
Procedure: (§1) Human platelets were prepared from platelet rich plasma (PRP) obtained from the Hematological Dept. of the “L.Sacco” Hospital of Milan. The PRP was centrifuged at 2,200 rpm for 15 minutes at 4° C. and the pellet was suspended in lysis solution (15 ml; 155 mM NH4Cl, 10 mM KHCO3 and 0.1 mM Na2EDTA, pH=7.4) and incubated for 10 minutes on ice-bath to remove the erythrocyte contamination. After a centrifuging at 1,400 rpm for 10 minutes at 4° C., platelets were suspended in 10 ml of […], 5 mM KCl, 1 mM MgSO4, 10 mM glucose, 10 mM HEPES and 0.05 U/ml of hirudin (pH=7.4), and stored at −20° C. until homogenization and chromatography.
(§2) Before the chromatographic step, platelets were thawed and 50 ml of 20 mM TRIS (pH=6.5) containing 5 mM βmercapto-ethanol, 2 mM EDTA, 50mM sodium acetate and 50 μM PMSF (homogenization buffer) were added. The platelet suspension was then homogenized by a Polytron homogenizer (Polytron PT 1200) for 20 seconds. The homogenate was centrifuged at 14,500 rpm for 20 minutes at 4° C., and the supernatant was applied to a UNO Q12 column (Bio-Rad) pre-equilibrated with the PMSF. A flow rate of 4.5 ml/min was used throughout the ion exchange chromatography procedure. The column was washed with PMSF (180 ml) and PDE 3 and PDE 5 were eluted by sodium acetate linear gradient from 0.05M to 1M. The fractions containing enzymatic activity were joined, dialysed against water and concentrated 10 times by ultrafiltration. The resulting solution was stored at −20° C. in the presence of ethylenglycole (30%) v/v) until use.
(§3) The enzyme activity was assessed with an Amersham kit based on the SPA technique (Scintillation Proximity Assay). The enzymatic reaction was effected in a total volume of 100 μl of TRIS/HCl buffer (50 mM, pH7.5), MgCl2 (8.3 mM), EGTA (1.7 mM), cAMP (for PDE 3 assay) or cGMP (for PDE 5 assay) (1 μM), [^3H]cAMP or [^3H]cGMP (10 μl), and 10 μl of the compounds of the invention. The reaction was started by adding the enzyme (10 μl) incubated for 40 minutes at 30° C. and stopped by adding 50 μl of SPA beads. The radioactivity due to the particles was measured in β-emitting counter. The results are expressed as percent activity versus the control present in each test.

PDE 3 = target: T2, PDE 3 (Homo sapiens, UniProt Q14432); assay: PDE 3 enzyme inhibition test (SPA); assay type: biochemical; conditions: at 10^-6 M; enzyme from human platelets
T2 construct: Human platelets were prepared from platelet rich plasma (PRP); from tissue; host or cells: human platelets (platelet rich plasma, L. Sacco Hospital, Milan)
T2 sequence (Q14432 whole entry): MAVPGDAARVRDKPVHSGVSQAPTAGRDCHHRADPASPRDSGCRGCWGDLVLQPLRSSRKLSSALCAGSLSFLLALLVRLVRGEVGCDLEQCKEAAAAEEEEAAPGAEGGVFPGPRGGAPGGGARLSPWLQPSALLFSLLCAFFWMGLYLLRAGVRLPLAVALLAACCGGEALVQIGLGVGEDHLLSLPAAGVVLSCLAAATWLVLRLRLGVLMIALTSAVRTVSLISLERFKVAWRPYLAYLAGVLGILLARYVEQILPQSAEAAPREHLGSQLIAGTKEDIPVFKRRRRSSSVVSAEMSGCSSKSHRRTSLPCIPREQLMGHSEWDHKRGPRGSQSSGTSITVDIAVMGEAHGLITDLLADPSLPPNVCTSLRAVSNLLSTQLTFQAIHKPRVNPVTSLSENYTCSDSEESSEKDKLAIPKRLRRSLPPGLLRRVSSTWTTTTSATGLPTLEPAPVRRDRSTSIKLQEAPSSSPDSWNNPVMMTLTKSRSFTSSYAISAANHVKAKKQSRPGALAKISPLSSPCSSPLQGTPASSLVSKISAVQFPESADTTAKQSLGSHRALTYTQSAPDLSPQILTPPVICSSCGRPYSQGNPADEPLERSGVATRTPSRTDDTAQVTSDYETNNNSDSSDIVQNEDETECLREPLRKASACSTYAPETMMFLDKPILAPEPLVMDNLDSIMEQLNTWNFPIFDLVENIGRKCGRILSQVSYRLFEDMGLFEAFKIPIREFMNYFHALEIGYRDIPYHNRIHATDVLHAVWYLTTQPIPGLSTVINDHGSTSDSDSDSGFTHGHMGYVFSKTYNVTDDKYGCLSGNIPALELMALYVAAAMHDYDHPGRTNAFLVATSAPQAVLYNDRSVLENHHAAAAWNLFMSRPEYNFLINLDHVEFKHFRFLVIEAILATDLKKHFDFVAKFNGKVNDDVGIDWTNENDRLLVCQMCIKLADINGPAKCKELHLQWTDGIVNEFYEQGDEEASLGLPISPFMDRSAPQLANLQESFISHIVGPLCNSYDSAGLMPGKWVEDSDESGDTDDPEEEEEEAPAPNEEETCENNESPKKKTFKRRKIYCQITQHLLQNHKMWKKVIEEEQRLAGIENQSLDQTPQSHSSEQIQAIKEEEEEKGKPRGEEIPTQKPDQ
Procedure: as §1, §2, §3

[1] = at 10^-6 M, enzyme from human PMNs
[2] = at 10^-8 M, enzyme from human PMNs
[3] = enzyme from human PMNs, 9 concentrations, 4-parameter logistic
[4] = at 10^-5 M, enzyme from human PMNs

SMILES: COc1ccc2c(Cc3c(Cl)cncc3Cl)nncc2c1OC1CCCC1 [Compound 1, 5-Cyclopentyloxy-1-(3,5-dichloropyridin-4-ylmethyl)-6-methoxy-phthalazine]
PDE 4 % inhibition (PDE 4; [1]): 84% | PDE 4 % inhibition (PDE 4; [2]): 19% | IC50 (PDE 4; [3]): 53.1 ± 10 nM | IC50 (TNFα): 254 ± 84 nM | inhibition at 1 µM (PDE 5): 20% | inhibition at 1 µM (PDE 3): 0%

SMILES: FC(F)Oc1ccc2c(Cc3c(Cl)cncc3Cl)nncc2c1OC1CCCC1 [Compound 3, 5-Cyclopentyloxy-1-(3,5-dichloropyridin-4-yl-methyl)-6-difluoromethoxy-phthalazine]
PDE 4 % inhibition (PDE 4; [1]): 100% | PDE 4 % inhibition (PDE 4; [2]): 34% | IC50 (PDE 4; [3]): 38.9 ± 7 nM | IC50 (TNFα): 167 ± 79 nM | inhibition at 1 µM (PDE 5): 14% | inhibition at 1 µM (PDE 3): 5%

SMILES: COc1ccc2c(Nc3c(Cl)cncc3Cl)nncc2c1OC1CCCC1 [Compound 4, 5-Cyclopentyloxy-1-(3,5-dichloropyridin-4-ylamino)-6-methoxy-phthalazine]
PDE 4 % inhibition (PDE 4; [1]): 73% | IC50 (PDE 4; [3]): 58.9 ± 5 nM | IC50 (TNFα): 187 ± 35 nM | inhibition at 1 µM (PDE 5): 19% | inhibition at 1 µM (PDE 3): 8%

SMILES: COc1ccc2c(Cc3c(Cl)cncc3Cl)nncc2c1OC1Cc2ccccc2C1 [Compound 5, 1-(3,5-Dichloro-pyridin-4-methyl)5-(indan-2-yloxy)-6-methoxy-2H-phthalazine]
PDE 4 % inhibition (PDE 4; [1]): 80% | PDE 4 % inhibition (PDE 4; [2]): 33% | IC50 (PDE 4; [3]): 29.5 ± 4 nM | IC50 (TNFα): 252 ± 120 nM

SMILES: COc1ccc2c(Cc3c(Cl)cncc3Cl)nncc2c1OCCCCCc1ccccc1 [Compound 6, 1-(3,5-Dichloro-pyridin-4-methyl)-5-(5-phenyl-pentyl-1-oxy)-6-methoxy-phthalazine]
PDE 4 % inhibition (PDE 4; [1]): 79% | PDE 4 % inhibition (PDE 4; [2]): 27% | IC50 (PDE 4; [3]): 56.8 ± 9 nM | IC50 (TNFα): 83.5 ± 24 nM | inhibition at 1 µM (PDE 5): 20% | inhibition at 1 µM (PDE 3): 25%

SMILES: COc1ccc2c(Cc3c(Cl)cncc3Cl)nncc2c1OC1CCOC1 (stereo not drawn) [Compound 13]
IC50 (PDE 4; [3]): 153 ± 85 nM | inhibition at 1 µM (PDE 5): 2% | inhibition at 1 µM (PDE 3): 4%

SMILES: COc1ccc2c(Cc3c(Cl)cncc3Cl)n[n+]([O-])cc2c1OC1CCOC1 (stereo not drawn) [Compound 14]
IC50 (PDE 4; [3]): 298 ± 37 nM | IC50 (TNFα): 389 ± 47 nM

SMILES: FC(F)Oc1ccc2c(Cc3c(Cl)cncc3Cl)nncc2c1OC1CCOC1 (stereo not drawn) [Compound 15, 1-(3,5-Dichloro-pyridin-4-ylmethyl)-6-difluoromethoxy-5-(tetrahydro-furan-3-yloxy)-phthalazine]
IC50 (PDE 4; [3]): 282 ± 36 nM | inhibition at 1 µM (PDE 5): 0% | inhibition at 1 µM (PDE 3): 11%

SMILES: COc1ccc2c(Cc3c(Cl)c[n+]([O-])cc3Cl)n[n+]([O-])cc2c1OC1CCOC1 (stereo not drawn) [Compound 19]
IC50 (PDE 4; [3]): 206 ± 124 nM | inhibition at 1 µM (PDE 5): 8%

Results, then the compound that gave them:

PDE 4 % inhibition (PDE 4; [4]): 97% | PDE 4 % inhibition (PDE 4; [1]): 94% | PDE 4 % inhibition (PDE 4; [2]): 25% | IC50 (PDE 4; [3]): 42.4 ± 5 nM | IC50 (TNFα): 139 ± 55 nM | inhibition at 1 µM (PDE 5): 4% | inhibition at 1 µM (PDE 3): 20%
SMILES: COc1ccc2c(Cc3c(Cl)cncc3Cl)n[n+]([O-])cc2c1OC1CCCC1 [Compound 2, 5-Cyclopentyloxy-1-(3,5-dichloropyridin-4-ylmethyl)-6-methoxy-phthalazin-3-oxide]

IC50 (PDE 4; [3]): 186 ± 43 nM
SMILES: COc1cc2cnnc(Cc3c(Cl)cncc3Cl)c2cc1OC1CCCC1 [Compound 7, 7-Cyclopentyloxy-1-(3,5-dichloropyridin-4-ylmethyl)-6-methoxy-phthalazine]

IC50 (PDE 4; [3]): 146 ± 38 nM
SMILES: COc1cc2c(C)nnc(Cc3c(Cl)cncc3Cl)c2cc1OC1CCCC1 [Compound 9, 7-Cyclopentyloxy-1-(3,5-dichloro-pyridin-4-ylmethyl)-4-methyl-6-methoxy-phthalazine]

PDE 4 % inhibition (PDE 4; [4]): 93% | PDE 4 % inhibition (PDE 4; [1]): 80% | PDE 4 % inhibition (PDE 4; [2]): 33% | IC50 (PDE 4; [3]): 74.9 ± 8 nM | IC50 (TNFα): 259 ± 86 nM | inhibition at 1 µM (PDE 5): 20% | inhibition at 1 µM (PDE 3): 20%
SMILES: CCc1nnc(Cc2c(Cl)cncc2Cl)c2cc(OC3CCCC3)c(OC)cc12 [Compound 10, 7-Cyclopentyloxy-1-(3,5-dichloro-pyridin-4-ylmethyl)-4-ethyl-6-methoxy-phthalazine]

IC50 (PDE 4; reference compounds): > 100000 nM | activity on PDE 4 (in words) (PDE 4): did not show to be active
SMILES: COc1cc2c(Cc3ccncc3)n[nH]c(=O)c2cc1OC [Reference 1, 6,7-dimethoxy-4-(pyridin-4-yl-methyl)-2H-phthalazin-1-one, reference compound]

IC50 (PDE 4; reference compounds): > 100000 nM | activity on PDE 4 (in words) (PDE 4): did not show to be active
SMILES: COc1cc2c(CC3CCNCC3)n[nH]c(=O)c2cc1OC [Reference 2, 6,7-dimethoxy-4-(piperidin-4yl-methyl)-2H-phthalazin-1-one, reference compound]
